Measurements taken from patent US20260256812A1, “COMPOSITION COMPRISING A COMBINATION OF A CORTICOSTEROID AND A FLAVONOID FOR USE IN TREATING EYE-RELATED DISEASES” (priority 2023, published 2026).

How the values were obtained:
ARPE-19 cells [1] = assay: Cytotoxicity evaluation by acid phosphatase assay (APA); format: cell-based, human
Description: ARPE-19 (adult retinal pigment epithelium-19) cell line was cultured using cell culture media containing a 1:1 mixture of DMEM and F-12 nutrient mixture. The media was supplemented with 10% FBS and 1% penicillin-streptomycin antibiotic mixture. During the culture, cells were maintained at 37° C. with 5% CO2 in a humidified incubator and sub-cultured with trypsin upon confluency.
Cytotoxicity evaluation of the drugs, both individually and in combination, was performed using the acid phosphatase assay (APA). The cytotoxicity assay was performed on TA and QCN from 5 to 250 μM and 1 to 250 μM, respectively. After investigating individual drugs, drug combinations were tested as outlined in Table 1.
Initially ARPE-19 cells were seeded onto a 96-well plate at a seeding density of 5000 cells/well containing 100 μL of cell culture media and cultured for 24 hr. After 24 hr, treatments were added to the wells and incubated for the period of the study (24 h and 48 hr). After the treatment period, media was removed, and cells were washed twice with PBS. Upon washing, 100 μL of 10 mM PNPP substrate dissolved in 0.1 M sodium acetate buffer was added to the wells and incubated for 2 hr. Finally, 50 μL of stop solution (1 M sodium hydroxide) was added and the plate was analysed in the plate reader at 405 nm.

[2] = system: intracellular ROS in ARPE-19 cells; assay: DCFH-DA intracellular ROS assay by flow cytometry; format: cell-based, human
Description: ARPE-19 cells were seeded onto 6-well plates at a seeding density of 25×10^4 cells/well and incubated for 24 hr. At the 24 hr time point cells were stimulated with stimulants to induce oxidative stress. […] Upon incubation with dye, cells were detached using trypsin and resuspended in PBS for analysis using flow cytometry.
Upon stimulation and treatment, the intracellular ROS levels were measured using flow cytometry to assess the anti-oxidant effect of the treatments. The oxidation of DCFH-DA to 2′-7′dichlorofluorescein (DCF) was used for the detection of intracellular ROS levels including nitrogen dioxide and hydroxyl radicals. The cells will take up the DCFH-DA dye where cellular esterase cleaves off the acetyl groups, resulting in the formation of DCFH (2′,7′-dichlorodihydrofluorescein). Oxidation of DCFH in the presence of intracellular ROS leads to the formation of DCF. This DCF fluorescent molecule can be detected using a flow cytometer by mean fluorescence intensity (MFI).

ARPE-19 cells [3] = assay: Scratch (wound healing, cell migration) assay; format: cell-based, human; settings: QCN 20 μM; TA 100 μM; TA 100+QCN 20 μM; 1% FBS
Description: For the scratch or wound healing assay cells were seeded onto six-well plates with a seeding density of 25×10^4 cells/well. Upon reaching 80-90% confluency, a sterile 200 μL pipette tip was used to scrape the confluent monolayer of cells in a horizontal line. After creating the scratch, cell debris was washed with PBS and the cell culture media containing treatments was added to each well. The scratch was photographed using an Olympus EP50 microscope at 10× magnification at 0, 6, 9, 24, 27 and 30 h. “Image J” software was used to analyse the width of the scratch.
The major cause of irreversible vision loss is the exudative form of AMD, which is characterized by CNV where the newly formed blood vessels protrude from the choroid to the retina through Bruch's membrane. Even though the mechanism of CNV is not fully understood, some pathological studies point to the connection between CNV and sub-RPE deposits. Additionally, focal inflammation leads to focal thinning and damage of Bruch's membrane in patients of AMD. RPE cells are essential for the maintenance of photoreceptor cells as they provide nutrients. But the contact between RPE and photoreceptor cells was disrupted due to the accumulation of sub-RPE deposits and the interference of branched blood vessels. […] Upon seeding 25×10^4 cells/well and reaching around 90% confluency, the wounds were created and measured using image ‘J’ software. […]

DPPH antioxidant assay = assay: DPPH antioxidant assay
Description: The DPPH assay was performed in a 96-well plate where 20 μL of methanolic DPPH solution was added to 180 μL of methanolic solutions of treatments. Based on the outcome from anti-inflammatory studies, the higher concentrations of TA and QCN, both individually and in combination were investigated for antioxidant activity (TA 75, 100 μM and QCN 15, 20 μM). This reaction mixture was incubated for 30 min in darkness at room temperature and the absorbance was measured at 517 nm using a microplate reader.

VEGF-C = assay: Anti-VEGF activity, VEGF-C ELISA on LPS-stimulated ARPE-19 cells; format: cell-based, human
Description: (§1) The human IL-6, IL-8, MCP-1, and VEGF-C ELISA kits were used according to the manufacturer's protocol to investigate the cytokine secretions in the cell supernatants. Cells were seeded onto a 24-well plate at a seeding density of 3×10^4 cells/well with 500 μL of cell culture media and cultured for 24 hr. Cells were kept overnight in low serum media (with 1% FBS) to synchronise their growth phase before stimulating inflammation. After 24 hr cells were stimulated with 10 μg/mL LPS to induce inflammation for a duration of 24 hr. Upon stimulation, cells were exposed to various treatments of drugs alone and in combination for 24 hr. After the treatment duration media conditioned by treated cells were collected and analysed for the cytokines and VEGF-C secretions using the ELISA kits. ELISA was performed according to the manufacturer's protocol.

IL-6 = IL-6 ELISA on ARPE-19 cell supernatants; format: cell-based, human
Description: as §1, with “After 24 hr cells were stimulated with 10 μg/mL LPS to induce inflammation for a duration of 24 hr.” left out

[4] = 10 μg/mL LPS 24 hr, then 24 hr treatment
[5] = TA 10 to 250 μM, 24 hr and 48 hr

In the case of OO [H2O2, hydrogen peroxide], the “cell viability with stimulant” value (ARPE-19 cells [1]; H2O2 200 and 300 μM, up to 48 h) is reported as “decrease in cell viability” and the “MFI of stimulated stained cells” value ([2]; HP at 300 μM, unstimulated stained printed as 3.73±0.29, P value <0.05) is reported as 2.01±0.10.

For O=c1c(O)c(-c2ccc(O)c(O)c2)oc2cc(O)cc(O)c12 [QCN, quercetin], the cell viability (ARPE-19 cells [1]; QCN 1 to 20 μM) was “more than 90%”, the “effect on cells at higher concentrations” value (ARPE-19 cells [1]; QCN above 25 μM, up to 250 μM) was “toxic effects” and the cell viability (ARPE-19 cells [1]; QCN concentration up to 25 μM, 24 hr and 48 hr) was “more than 80%”. For the same compound, the “migration of the cells” value (ARPE-19 cells [3]) was “enhanced the migration”, the “inhibition of DPPH” value (DPPH antioxidant assay; QCN 20 μM) was 66.71±0.61% and the “anti-oxidant effect on DPPH free radical” value (DPPH antioxidant assay; TA 75, 100 μM, QCN 15, 20 μM, 30 min) was “strong anti-oxidant effect”. For the same compound, the “generated ROS (MFI) compared to control stimulated stained cells” value ([2]; 300 μM H2O2, TA 75, 100 μM, QCN 15, 20 μM, individually and in combination, 24 hr) was “significantly suppressed”, the VEGF-C concentration (VEGF-C; QCN 20 μM, control LPS stimulated 1.96±2.05) was 0.83 ± 0.02 µg/mL and the “expression of VEGF-C compared to LPS stimulated cells” value (VEGF-C; TA 75, 100 μM, QCN 15, 20 μM, individually and in combination) was “better suppression”. For the same compound, the “IL-6 expression compared to LPS stimulated cells” value (IL-6; [4]) was “decreased” and the “concentration showing maximum inhibition of IL-6 expression” value (IL-6; [4]) was 20 µM.

In the case of CC1(C)O[C@@H]2C[C@H]3[C@@H]4CCC5=CC(=O)C=C[C@]5(C)[C@@]4(F)[C@@H](O)C[C@]3(C)[C@]2(C(=O)CO)O1 [TA, triamcinolone acetonide], the cell morphology (ARPE-19 cells [1]; [5]) is reported as “no changes in cell morphology”, the viability of cells (ARPE-19 cells [1]; [5]) is reported as “not affected” and the “concentration showing maximum inhibition of IL-6 expression” value (IL-6; [4]) is reported as 100 µM.

In the case of lipopolysaccharide [LPS], the cytotoxicity of stimulant (ARPE-19 cells [1]; LPS 0.5 to 100 μg/mL, up to 48 h) is reported as “non-toxic” and the “IL-6 cytokine on stimulation” value (IL-6; LPS stimulation from 10 to 50 μg/mL) is reported as “consistently increased”.
